Test results reported in ChEMBL document CHEMBL3046457, “Chemical characterization of the aphid antifeedant extracts from Dittrichia viscosa and Ferula communis” (2012).

Key:
Assay type in all cases: functional
Myzus persicae [1] = experiment: Insecticidal activity against Myzus persicae (green peach aphid) in compound treated leaf disk assessed as settling inhibition on leaf disk at 100 ug/cm'2 relative to control
Myzus persicae [2] = experiment: Insecticidal activity against Myzus persicae (green peach aphid) in compound treated leaf disk assessed as settling inhibition on leaf disk at 10 ug/cm'2 relative to control
Myzus persicae [3] = experiment: Insecticidal activity against Myzus persicae (green peach aphid) in compound treated leaf disk assessed as settled on leaf disk at 100 ug/cm'2 relative to control (reference value: 39 +/- 6 to 98 +/- 1%)
Myzus persicae [4] = experiment: Insecticidal activity against Myzus persicae (green peach aphid) in compound treated leaf disk assessed as settling inhibition on leaf disk at 50 ug/cm'2 relative to control
Myzus persicae [5] = experiment: Insecticidal activity against Myzus persicae (green peach aphid) in compound treated leaf disk assessed as settled on leaf disk at 50 ug/cm'2 relative to control (reference value: 39 +/- 6 to 98 +/- 1%)
Myzus persicae [6] = experiment: Insecticidal activity against Myzus persicae (green peach aphid) in compound treated leaf disk assessed as settled on leaf disk at 10 ug/cm'2 relative to control (reference value: 39 +/- 6 to 98 +/- 1%)
Myzus persicae [7] = experiment: Insecticidal activity against Myzus persicae (green peach aphid) in compound treated leaf disk assessed as settled on leaf disk

Compound	inhibition (INH) (Myzus persicae [1]) [%]	inhibition (INH) (Myzus persicae [2]) [%]	inhibition (INH) (Myzus persicae [3]) [%]	inhibition (INH) (Myzus persicae [4]) [%]	inhibition (INH) (Myzus persicae [5]) [%]	inhibition (INH) (Myzus persicae [6]) [%]	ED50 (Myzus persicae [7]) [microg/cm2]
CC(C)=CCC/C(C)=C/CC/C(C)=C/Cc1c(O)c2ccccc2oc1=O	62	63	26	71	20	28	
C=C1C(=O)O[C@H]2CC(=C)[C@H]3CC[C@@](C)(O)[C@@H]3C[C@H]12 [INUVISCOLIDE]	56	38	31	50	39	43	
C=C1C(=O)O[C@@H]2C[C@H](C)C(CCC(C)=O)=CC[C@H]12 [TOMENTOSIN]	98	19	2	48	35	61	31.9
